Here are results for 27 compounds from patent publication US12398111B2, “Triazine compounds and pharmaceutical use thereof” (Japan Tobacco Inc., priority 2014, dated 2025).

The IC50 is the concentration that gives 50% inhibition. Read a high IC50 as a need for much substance. Broadly, the inhibition is the change of the read-out against control, counted positive when it falls. High values mean a strong effect, low ones a weak effect.

For one assay, the target named is T1, human mPGES-1 (Homo sapiens, UniProt O14684).
T1 construct: made in house; host or cells: FreeStyle CHO-S cells (Chinese hamster ovary), transient transfection with pcDNA3.1(+)/human mPGES-1; microsome fraction used
T1 sequence (O14684 1-152): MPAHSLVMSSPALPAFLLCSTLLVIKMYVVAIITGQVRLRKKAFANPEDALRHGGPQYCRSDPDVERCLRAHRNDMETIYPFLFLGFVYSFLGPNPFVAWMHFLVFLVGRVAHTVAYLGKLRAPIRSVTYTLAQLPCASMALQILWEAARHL
In words: Evaluation of human mPGES-1 enzyme inhibitory activity (PGE2 measured by HTRF, microsome fraction of CHO-S cells expressing human mPGES-1). Type of assay: biochemical. The settings on record: IC50 value; microsome fraction of CHO-S cells expressing human mPGES-1, PGE2 by HTRF. In a few lines: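 Enzyme source: microsomes from CHO-S cells transfected with human mPGES-1 and cultured 48 hr, diluted to 5 μg/mL protein in reduced GSH (12.5 mmol/L KPB solution). Test articles were in 0.1 mol/L potassium phosphate pH 7.4, final DMSO 2% (v/v). PGE2 formed was quantified by HTRF.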
(In general: In TR-FRET formats the signal depends on donor and acceptor labels being close together.)
As to `CC(C)(C(=O)NCc1ccc(Cl)c(-c2nc(O)nc(-c3ccc(OCC(F)(F)F)cc3)n2)c1)C(F)(F)F` [Example 1-113], 0.9 nM corresponded to half-maximal inhibition (IC50). The same measure, in the same setting: for `CN(Cc1ccc(Cl)c(-c2nc(O)nc(-c3ccc(OCC4CCCCC4)cc3)n2)c1)C(=O)C(C)(C)C(F)(F)F` [Example 1-211] the value was 63 nM; for `CN(C)C(=O)COc1cccc(Cl)c1-c1nc(O)nc(-c2ccc(OCC3CC3)cc2)n1` [Example 2-90], 2100 nM; for `CCN(Cc1ccc(Cl)c(-c2nc(O)nc(-c3ccc(OCC(C)(C)C)cc3)n2)c1)C(=O)OC(C)(C)C` [Example 1-209], 59 nM. As for `Cc1cc(C(F)(F)F)ccc1-c1nc(O)nc(-c2c(C)cccc2C)n1` [Example 2-3], the half-inhibitory concentration (IC50) is 14700 nM.

`COC(C)(C)C(=O)N(C)Cc1ccc(Cl)c(-c2nc(O)nc(-c3ccccc3)n2)c1` [Example 1-234] gave an IC50 of 1000 nM. On the same count and under the same terms, the result for `Cc1ccc(C(F)(F)F)cc1-c1nc(O)nc(-c2ccc(C(F)(F)F)cc2)n1` [Example 1-9] reads 601 nM. The same measure, in the same setting: for `CCc1ccc(C#Cc2ccc(-c3nc(O)nc(-c4c(OCc5cccc(C)n5)cccc4C(F)(F)F)n3)cc2)cc1` [Example 2-128] the value was 13 nM. In turn, `CC(C)(C)C(=O)NCc1ccc(Cl)c(-c2nc(O)nc(-c3cccc(OC(F)(F)F)c3)n2)c1` [Example 1-61] had an IC50 of 0.7 nM. For the compound `CCc1ccc(C)c(-c2nc(O)nc(-c3ccc(C(F)(F)F)cc3)n2)c1` [Example 1-14], the IC50 worked out at 1410 nM. The same measure, in the same setting: for `Oc1nc(-c2ccc(C(F)(F)F)cc2)nc(-c2c(Cl)cccc2OCc2cccnc2)n1` [Example 2-60] the value was 121 nM; for `CC(O)Cc1ccc(Cl)c(-c2nc(O)nc(-c3ccc(OCC(C)(C)C)cc3)n2)c1` (stereo not drawn) [Example 1-216], 39 nM. The compound `O=C(NCc1ccc(Cl)c(-c2nc(O)nc(-c3ccc(OCC4CC4)cc3)n2)c1)C1(C(F)(F)F)CC1` [Example 1-163] showed a half-inhibitory concentration (IC50) of 1 nM. `Cc1cccc(C)c1-c1nc(O)nc(-c2ccc(Cl)c(OCc3ccccc3)c2)n1` [Example 2-48] came in with an IC50 of 19 nM. `O=C(NCc1ccc(Cl)c(-c2nc(O)nc(-c3ccc(C(F)(F)F)cc3)n2)c1)C1CCCC1` [Example 1-30] had an IC50 of 0.6 nM. On the same count and under the same terms, for `Cc1ccc(C#N)c(-c2nc(O)nc(-c3ccc(C#Cc4ccccc4)cc3)n2)c1` [Example 1-174] the value was 3.1 nM; for `CCC(C)(C)C(=O)NCc1ccc(Cl)c(-c2nc(O)nc(-c3cccc(C(F)(F)F)c3)n2)c1` [Example 1-58], 0.5 nM.

The compound `Cc1cccc(C)c1-c1nc(O)nc(-c2ccc(OCc3ccccc3)nc2)n1` [Example 2-59] displayed a concentration for half-maximal inhibition (IC50) of 95 nM.

`CC(C)(C)C(=O)NCc1ccc(Cl)c(-c2nc(O)nc(-c3ccccc3)n2)c1` [Example 1-43] displayed an IC50 of 2 nM. Regarding `CC(C)(C(=O)NCc1ccc(Cl)c(-c2nc(O)nc(-c3ccc(OCC4CCCCC4)cc3)n2)c1)C(F)(F)F` [Example 1-172], the IC50 was determined as 17 nM. Same read-out and setting: the result for `Cc1cc(-c2nc(O)nc(-c3cc(CNC(=O)C(C)(C)CC(F)(F)F)ccc3Cl)n2)ccc1F` [Example 1-183] reads 1.3 nM. Same read-out and setting: the result for `Cc1cccc(C)c1-c1nc(O)nc(-c2ccc(OC(C)C)cc2)n1` [Example 2-38] reads 1000 nM. Still for that read-out and setting: the result for `CC(C)(C)COc1ccc(-c2nc(O)nc(-c3cc(CO)ccc3C(F)(F)F)n2)cc1` [Example 1-207] reads 4.3 nM; that for `CC1CCC2(CC1)CN(Cc1ccc(Cl)c(-c3nc(O)nc(-c4ccccc4)n3)c1)C2=O` (single isomer, unassigned) [Example 1-257], 17 nM. In the case of `Cc1cc(-c2nc(O)nc(-c3cc(CNC(=O)C(C)(C)C(F)(F)F)ccc3Cl)n2)ccc1F` [Example 1-90], the 50% inhibitory concentration (IC50) came to 0.4 nM.

The same assay, now with this note: at 30 μM test article.
Compound `O=C(O)c1ccc(Cl)c(-c2nc(O)nc(-c3ccc(OCC4CC4)cc3)n2)c1` [Example 1-192] had an inhibition at 30 µM of 41%. The same measure, in the same setting: the result for `CCC(=O)N(CC)Cc1ccc(Cl)c(-c2nc(O)nc(-c3ccccc3)n2)c1` [Example 1-261] reads 44%.
